Measurements taken from patent EP2576536B1, “HAEMATOPOIETIC-PROSTAGLANDIN D2 SYNTHASE INHIBITORS” (priority 2010, dated 2011).

Legend:
[1] = test system: mouse primary bone marrow-derived macrophages (BMM); assay: LPS-inducible PGE2, 6-keto PGF1α and TXB2 production from BMM (EIA), specificity; type: cell-based; details: 24 h
Procedure: The human megakaryocytic cell line MEG-01S was obtained from the American Type Culture Collection. MEG-01S were maintained in the same media as for BMM, supplemented with 1 mM Sodium Pyruvate (Invitrogen).
BMM were seeded overnight at 2 x 10^5 cells/ml in 24 well plates before treatment with compound at either 10 µM or 0.1 - 100 µM for 24 h in the presence or absence of lipopolysaccharide (LPS) from Salmonella Minnesota (Sigma-Aldrich) at a final concentration of 10 ng/ml. MEG-01S were seeded at 2 x 10^5 cells/ml and stimulated with PMA (Phorbol 12-myristate 13-acetate) (Sigma-Aldrich) at a final concentration of 0.1 µM for 16 h.

BMM = BMM cell viability by MTT assay; type: cell-based, mouse; details: at 10 µM or 100 µM, LPS, 24 h (Figure 1B)
Procedure: (§1) All bone marrow-derived macrophages (BMM) were obtained by culturing bone marrow cells from the femurs of 6 to 8 week old C57BL/6 male mice in RPMI 1640 medium (Invitrogen Life Technologies, Carlsbad, CA, USA) supplemented with 10 % Fetal calf serum (Invitrogen) 20 U/ml penicillin and 20 µg/ml streptomycin (Invitrogen), 2 mM L-glutamine (Glutamax-1, Invitrogen) in the presence of 10^4 U/ml (100 ng/mL) recombinant human CSF-1 (a gift from Chiron, Emeryville, CA) on bacteriological plastic plates for 7 days. The human megakaryocytic cell line MEG-01S was obtained from the American Type Culture Collection. MEG-01S were maintained in the same media as for BMM, supplemented with 1 mM Sodium Pyruvate (Invitrogen).
(§2) Known inhibitors 1 and 2, along with compound 3, were used to treat BMM at three doses (10, 30, 100 µM) in the presence of LPS for 24 h and cell viability was measured by MTT assay. BMM were seeded at 1 x 10^5 cells/well in 96 well plates and treated for 24 h with LPS (10 ng/ml) and compounds at 10, 30 and 100 µM. MEG-01S were PMA differentiated overnight before compounds were added for a further 24 h at 10, 30 and 100 µM. Cell viability was measured by MTT (Sigma-Aldrich) assay as described previously (Irvine, FASEB J, 2006).

[2] = test system: MEG-01S human megakaryocytes; assay: A23187-inducible PGD2 production in PMA-differentiated MEG-01S (EIA); type: cell-based; details: 0-100 µM, 30 min before 5 µM A23187 (Figure 3A)
Procedure: as §1
BMM were seeded overnight at 2 x 10^5 cells/ml in 24 well plates before treatment with compound at either 10 µM or 0.1 - 100 µM for 24 h in the presence or absence of lipopolysaccharide (LPS) from Salmonella Minnesota (Sigma-Aldrich) at a final concentration of 10 ng/ml. […] Supernatants were collected and samples were analysed for PGD2 using Prostaglandin D2 Mox Express EIA kits, PGE2 using Prostaglandin E2 Express EIA kits, the prostacyclin derivative 6-keto PGF1α using the 6-keto Prostaglandin F1α EIA Kit and the Thromboxane A2 derivative TXB2 using the Thromboxane B2 Express EIA kit (Cayman Chemical) according to the manufacturer's instructions. […]

MEG-01S = MEG-01S cell viability by MTT assay; type: cell-based, human; details: 24 h treatment, 0-100 µM (Figure 3B)
Procedure: as §1
as §2, with “MEG-01S were PMA differentiated overnight before compounds were added for a further 24 h at 10, 30 and 100 µM.” left out
The effect of the compounds on MEG-01S cell viability was measured by MTT assay after 24 h treatment across the concentration range 0 - 100 µM of compounds (Figure 3B). […]

SMILES: NC(=O)[C@H](Cc1ccccc1)NC(=O)c1ccc(-c2cccs2)nc1 [Compound 3, N-(1-amino-1-oxo-3-phenylpropan-2-yl)-6-(thiophen-2-yl)-nicotinamide]
- concentration above which PGE2, 6-keto PGF1α and TXB2 inhibition was observed [1]: above 10 µM
- differential effect in inhibition of PGD2 versus PGE2, 6-keto PGF1α or TXB2 (selectivity) ([1]; 0-100 µM): striking selectivity
- BMM viability (BMM): did not affect BMM viability
- A23187-inducible PGD2 production [2]: inhibited A23187-inducible PGD2 production from PMA-differentiated MEG-01S human megakaryocytes dose-dependently
- MEG-01S cell viability (MEG-01S): little effect
